Data as given in US20080015147A1, “Method for inhibiting neuronal cell death” (priority 2006, published 2008).

Assays:
Type in all cases: cell-based, mouse
N38 cells [1] = assay: Bromodeoxyuridine (BrdU) incorporation assay; settings: 24 or 48 hrs; pH extremes
Excerpt: The evaluation of cell cycle progression is important when assessing the viability of a cell population. The cell cycle is a sequence of stages that a cell passes through between one division and the next. The cell cycle oscillates between mitosis and the interphase, which is divided into G, S, and G 2. In the G phase there is a high rate of biosynthesis and growth; in the S phase there is the doubling of the DNA content as a consequence of chromosome replication; in the G 2 phase the final preparations for cell division (cytokinesis) are made (Raza, 1985). In order to determine whether TCAP was increasing cell cycle efficiency, a bromodeoxyuridine (BrdU) non-isotopic enzyme immunoassay was conducted (Calbiochem, Canada). BrdU incorporation into newly synthesized DNA of actively proliferating cells enables one to quantify cell cycle progression and the population of cells entering the S phase(Gratzner, 1982; Raza, 1985).
N38 cells were grown in a 96-well culture plate using 100 μl at an initial density of 2×10^5 cells/ml. Controls consisted of a blank, one well containing only DMEM with no cells and background, and one well with cells but with no BrdU label added. […] Absorbance was measured on a SPECTRAmax Microplate spectrophotometer at dual wavelengths at 450-540 nm.

N38 cells [2] = assay: Cell viability by Trypan Blue uptake; settings: 48 hrs
Experimental: The proportion of viable cells in the samples was determined by measuring Trypan Blue uptake. At 48 hrs, the cells from the four pH treatments were suspended using 1 ml of Trypsin EDTA, centrifuged at 1600 RPM for 4 min and resuspended in 1 ml of BSS (Hank's Balanced Salt Solution) (Sigma, St. Louis). An aliquot of 0.5 ml of 0.04% Trypan Blue solution was transferred to a 1.5 ml tube, […] of BSS was added to 0.2 ml of the cell suspension; the samples were mixed thoroughly and the cell suspension-Trypan Blue mixture was allowed to stand for 10 minutes and then counted on a hemocytometer. Separate counts were kept for both viable and non viable cells.

caspase 3 = assay: Caspase 3 colorimetric assay
Experimental: (§1) Caspase 8 and 3 colorimetric assays were performed on the N38 cells at all pH conditions. The assay was based on the detection of the chromophore pNA after cleavage from the labeled substrate IETD-pNA and DEVD-pNA for caspase 8 and 3, respectively. Comparison of the pNA absorbance from the suspected apoptotic sample was compared to the uninduced neutral pH sample. Caspase 8 and 3 were analysed using the Caspase-3 Colorimetric Activity Assay (Chemicon, Temecula USA) and Caspase-8 Colorimetric Activity Assay (Chemicon, Temecula USA). The cells from each pH treatment described previously at 24 and 48 hrs were removed using a cell scraper and centrifuged at 1500 rpm for 10 minutes. The cells were resuspended in 350 μl of chilled cell lysis buffer containing 500 μl PBS, 5 μl 1% Triton ×100 (Sigma, St. Louis), 25 μl proteinase inhibitor cocktail set III (VWR, Mississauga), 0.5 μM dithiothreitol (DTT) (Sigma, St. Louis) and 2.5 μl phenylmethylsulphonylfluoride (PMSF) diluted in 1 mL of methanol (EM Science, Gibbstown), then incubated on ice for 10 min and centrifuged for 5 minutes at 10,000 rpm. The supernatant, consisting of cytosolic extracts, was transferred to a new tube and a bicinchoninic acid (BCA) protein assay (Pierce, Rockford) was conducted to determine total protein concentration. The absorbance of each sample was measured on a SPECTRAmax Microplate spectrophotometer at 405 nm after an incubation period of 2 hours at 37° C. Changes in caspase 3 activity were determined by comparing the absorbance reading from the induced sample with the level of the uninduced control. Background readings from the buffer were subtracted from the reading of both the induced (pH 6.8, 8.0, 8.4) and uninduced (pH 7.4) samples before calculating changes in caspase 3 activity. The same was done for the detection of caspase 8. As a control, N38 cells were cultured with pH 7.4 DMEM and incubated for 4 days, apoptosis was then induced using 10 μM/ml etoposide and lysed according to the above protocol and used a control for all subsequent caspase 3 detection. All assays were performed with 4 replications.

caspase 8 = assay: Caspase 8 colorimetric assay
Experimental: as §1

superoxide dismutase = assay: Superoxide dismutase western blot
[3] = system: superoxide copper chaperone (CCSD); assay: Superoxide copper chaperone (CCSD) expression by real-time PCR; settings: pH 8.4
[4] = system: cells treated with 50 μM H2O2; assay: H2O2 toxicity MTT assay
superoxide radical = assay: Superoxide radical measured by conversion of a soluble tetrazolium salt; settings: 48 hours
Experimental: The presence of the superoxide radical was measured indirectly by the conversion of a soluble tetrazolium salt in cells after 48 hours (FIG. 8A).

Substance: teneurin C-terminus associated peptide [TCAP-1]
- BrdU incorporation (N38 cells [1]): no significant results
- cell viability by trypan blue uptake (N38 cells [2]; pH 6.8): significant decrease in the number of cells that took up the trypan blue stain
- cell viability by trypan blue uptake (N38 cells [2]; pH 6.8, listed as TCAP): increased the number of viable cells
- cell viability by trypan blue uptake (N38 cells [2]; pH 8.0): significant decrease in the number of cells that took up the trypan blue stain
- cell viability by trypan blue uptake (N38 cells [2]; pH 8.0, listed as TCAP): increased the number of viable cells
- cell viability by trypan blue uptake (N38 cells [2]; pH 8.4): significant decrease in the number of cells that took up the trypan blue stain
- cell viability by trypan blue uptake (N38 cells [2]; pH 8.4, listed as TCAP): increased the number of viable cells
- relative level of caspase 3 activity, of the etoposide-induced increase (caspase 3; pH 6.8): ~40%
- caspase 3 activity vs vehicle (caspase 3; pH 6.8, P<0.05): increased caspase 3 activity
- caspase 3 activity vs vehicle (caspase 3; pH 8.0): no significant differences in caspase 8 and 3 activity
- caspase 3 activity vs vehicle (caspase 3; pH 8.4): no significant differences in caspase 8 and 3 activity
- relative level of caspase 8 activity, of the etoposide-induced increase (caspase 8; pH 7.4): about 70%
- caspase 8 activity vs vehicle (caspase 8; pH 7.4, P<0.001): increased caspase 8 activity
- caspase 8 activity vs vehicle (caspase 8; pH 8.0): no significant differences in caspase 8 and 3 activity
- caspase 8 activity vs vehicle (caspase 8; pH 8.4): no significant differences in caspase 8 and 3 activity
- superoxide dismutase protein expression (superoxide dismutase; pH 6.8): no significant differences in the expression of the superoxide dismutase protein
- superoxide dismutase protein expression (superoxide dismutase; pH 7.4): no significant differences in the expression of the superoxide dismutase protein
- superoxide dismutase protein levels (superoxide dismutase; pH 8.0, p<0.05): reduced the pH-induced decline in superoxide dismutase levels
- superoxide dismutase protein levels (superoxide dismutase; pH 8.4, p<0.01): reduced the pH-induced decline in superoxide dismutase levels
- CCSD expression increase over vehicle treated cells [3]: ~4.5 fold
- mitochondrial (MTT) activity vs vehicle ([4]; 0 hours): no effect
- MTT activity relative to vehicle ([4]; 6 to 48 hours): significant increase in MTT activity
- mitochondrial (MTT) activity vs vehicle ([4]; 6 hours, p<0.001): significantly increased mitochondrial activity
- mitochondrial (MTT) activity vs vehicle ([4]; 12 hours, p<0.001): significantly increased mitochondrial activity
- mitochondrial (MTT) activity vs vehicle ([4]; 24 hours, p<0.05): less significant effect
- mitochondrial (MTT) activity vs vehicle ([4]; 48 hours, p<0.001): significantly increased mitochondrial activity
- decrease in absorbance of the substrate (proportional to superoxide radical activity) (superoxide radical; pH 8.0, p<0.05): 40%
- decrease in absorbance of the substrate (proportional to superoxide radical activity) (superoxide radical; pH 8.4, p<0.01): 60%
